The values that follow come from paper PMC5607265, “Design, synthesis and structure-activity relationship of 3,6-diaryl-7H-[1,2,4]triazolo[3,4-b][1,3,4]thiadiazines as novel tubulin inhibitors” (Scientific Reports, 2017).

The test system of series [1] is gastric adenocarcinoma SGC-7901 cells. Nature of the series: MTT antiproliferative assay, SGC-7901. Particulars: Homo sapiens, SGC-7901; MTT assay, 24 h exposure, triplicate; read-out: IC50 SGC-7901. The class given is cell-based, human. As to the method: (§1) The SGC-7901, A549 and HT-1080 cell lines were purchased from the American Type Culture Collection (ATCC, Manassas, VA, USA). […] Briefly, approximately 3 × 10^4 cells were seeded in a 96-well plate. After 24 h of incubation at 37 °C, cells were exposed to compounds of differing concentrations for 24 h. After treatment, cells were washed with 1X PBS followed by addition of 100 µL of 0.05% MTT reagent to each well, followed by incubation for 4 h at 37 °C. After incubation, the supernatant from each well was carefully removed and the formazan crystals were dissolved in 100 µL of DMSO. The colour density was measured spectrophotometrically at 490 nm using a microplate reader (SpectraMax Plus384, Molecular Devices Corp., USA). The data were calculated and plotted as percent viability compared to control.
as §1
In general terms: Tetrazolium assays rely on reduction of a dye to a coloured formazan, in cell work by metabolically active cells.

The subject of series [2] is fibrosarcoma HT-1080 cells. Put plainly: MTT antiproliferative assay, HT-1080. The class given is cell-based, human. The following applies: Homo sapiens, HT-1080; MTT assay, 24 h exposure, triplicate; read-out: IC50 HT-1080. As to the method: as §1, §1
In series [3] the test system is lung adenocarcinoma A549 cells. Nature of the series: MTT antiproliferative assay, A549. The class given is cell-based, human. The following applies: Homo sapiens, A549; MTT assay, 24 h exposure, triplicate; read-out: IC50 A549. As to the method:
as §1, §1

What is called IC50 is the point on the concentration scale where inhibition reaches its midpoint. In general, melting point refers to the temperature, or range, at which the solid turns liquid.

Consider `COc1ccc(-c2nnc3n2N=C(c2ccc(Br)cc2)CS3)c(OC)c1OC` [Compound 4c, 3-(2,3,4-Trimethoxyphenyl)-6-(4-bromophenyl)-7H-[1,2,4]triazolo[3,4-b][1,3,4]thiadiazines], for which the melting point lay within 96 to 98 °C. In addition, the IC50 in series [1] was 5.55 µM. For the same compound, the half-inhibitory concentration (IC50) in series [2] was determined as 3.77 µM. Also, the IC50 in series [3] is 7.37 µM.

Compound `COc1cc(-c2nnc3n2N=C(c2ccc(C(F)(F)F)cc2)CS3)cc(OC)c1OC` [Compound 5c, 3-(3,4,5-Trimethoxyphenyl)-6-(4-(trifluoromethyl)phenyl)-7H-[1,2,4]triazolo[3,4-b][1,3,4]thiadiazine] showed a melting point of 105 to 106 °C. Also, the IC50 in series [1] turned out to be 1.17 µM. Moreover, the IC50 in series [2] came to 0.75 µM. Also, in series [3], the IC50 was determined as 7.72 µM.

For `COc1ccc(-c2nnc3n2N=C(c2ccc(F)cc2)CS3)c(OC)c1OC` [Compound 4a, 3-(2,3,4-Trimethoxyphenyl)-6-(4-fluorophenyl)-7H-[1,2,4]triazolo[3,4-b][1,3,4]thiadiazine], the melting point was 92 to 94 °C. Moreover, the half-inhibitory concentration (IC50) in series [1] stood at 32.6 µM. Further, the IC50 in series [2] stood at 31.3 µM. In series [3], the IC50 worked out at 21.2 µM.

The compound `COc1ccc(C2=Nn3c(nnc3-c3ccc(OC)c(OC)c3OC)SC2)cc1OCc1ccccc1` [Compound 4k, 3-(2,3,4-Trimethoxyphenyl)-6-(3-benzyloxy-4-methoxyphenyl)-7H-[1,2,4]triazolo[3,4-b][1,3,4]thiadiazine] had a melting point of 85 to 86 °C. For the same compound, the IC50 in series [1] is 28.9 µM. The IC50 in series [2] turned out to be 28.3 µM. The IC50 in series [3] amounted to 8.9 µM.

In the case of `COc1ccc(-c2nnc3n2N=C(c2ccc(Cl)cc2)CS3)c(OC)c1OC` [Compound 4b, 3-(2,3,4-Trimethoxyphenyl)-6-(4-chlorophenyl)-7H-[1,2,4]triazolo[3,4-b][1,3,4]thiadiazine], the melting point fell in the range of 88 to 90 °C. The IC50 in series [1] is 24.5 µM. For the same compound, the IC50 in series [2] stood at 24.7 µM. The IC50 in series [3] came to 23.2 µM.

Compound `COc1ccc(C2=Nn3c(nnc3-c3cc(OC)c(OC)c(OC)c3)SC2)cc1[N+](=O)[O-]` [Compound 5f, 3-(3,4,5-Trimethoxyphenyl)-6-(3-nitro-4-methoxyphenyl)-7H-[1,2,4]triazolo[3,4-b][1,3,4]thiadiazine] showed a melting point of 212 to 213 °C. For the same compound, the IC50 in series [1] amounted to 11.3 µM. Further, the IC50 in series [2] turned out to be 5.76 µM. Moreover, the 50% inhibitory concentration (IC50) in series [3] was 8.88 µM.

In the case of `COc1cc(-c2nnc3n2N=C(c2ccc(Cl)cc2)CS3)cc(OC)c1OC` [Compound 5a, 3-(3,4,5-Trimethoxyphenyl)-6-(4-chlorophenyl)-7H-[1,2,4]triazolo[3,4-b][1,3,4]thiadiazine], the melting point lay within 125 to 127 °C. The concentration for half-maximal inhibition (IC50) in series [1] was 1.37 µM. Also, in series [2], the IC50 was 0.88 µM. For the same compound, the IC50 in series [3] is 0.27 µM.

`COc1ccc(-c2nnc3n2N=C(c2ccc(OC)c([N+](=O)[O-])c2)CS3)cc1OC` [Compound 6f, 3-(3,4-Dimethoxyphenyl)-6-(3-nitro-4-methoxyphenyl)-7H-[1,2,4]triazolo[3,4-b][1,3,4]thiadiazine] registered a melting point of 190 to 192 °C. For the same compound, the IC50 in series [1] is 5.04 µM. In series [2], the IC50 was 3.32 µM. In addition, the IC50 in series [3] was 3.68 µM.

`COc1ccc(-c2nnc3n2N=C(c2ccc(F)c(F)c2)CS3)c(OC)c1OC` [Compound 4m, 3-(2,3,4-Trimethoxyphenyl)-6-(3,4-difluorophenyl)-7H-[1,2,4]triazolo[3,4-b][1,3,4]thiadiazine] came in with a melting point of 95 to 97 °C. Moreover, in series [1], the IC50 was 73.2 µM. Further, the IC50 in series [2] was found to be 81.3 µM. Further, in series [3], the 50% inhibitory concentration (IC50) amounted to 78.1 µM.

As to `COc1ccc(-c2nnc3n2N=C(c2ccc(C(F)(F)F)cc2)CS3)c(OC)c1OC` [Compound 4e, 3-(2,3,4-Trimethoxyphenyl)-6-(4-(trifluoromethyl)phenyl)-7H-[1,2,4]triazolo[3,4-b][1,3,4]thiadiazine], the melting point was 95 to 96 °C. Also, the half-inhibitory concentration (IC50) in series [1] stood at 2.42 µM. Further, the IC50 in series [2] came out at 10.5 µM. In addition, the half-inhibitory concentration (IC50) in series [3] turned out to be 85.4 µM.

On to `COc1ccc(C2=Nn3c(nnc3-c3cc(OC)c(OC)c(OC)c3)SC2)cc1OCc1ccccc1` [Compound 5h, 3-(3,4,5-Trimethoxyphenyl)-6-(3-benzyloxy-4-methoxyphenyl)-7H-[1,2,4]triazolo[3,4-b][1,3,4]thiadiazine], for which the melting point lay in the range of 93 to 94 °C. For the same compound, in series [1], the IC50 came to 1.66 µM. For the same compound, the IC50 in series [2] was 1.57 µM. The IC50 in series [3] was determined as 2.94 µM.

With `COc1ccc(C2=Nn3c(nnc3-c3ccc4c(c3)OCO4)SC2)cc1F` [Compound 6a, 3-(3,4-Methylenedioxyphenyl)-6-(3-fluoro-4-methoxyphenyl)-7H-[1,2,4]triazolo[3,4-b][1,3,4]thiadiazine], the melting point was in the range of 93 to 95 °C. The IC50 in series [1] stood at 0.065 µM. In addition, the half-maximal inhibitory concentration (IC50) in series [2] worked out at 0.13 µM. The IC50 in series [3] is 0.19 µM.

In turn, `COc1ccc(C2=Nn3c(nnc3-c3ccc4c(c3)OCO4)SC2)cc1OCc1ccccc1` [Compound 6d, 3-(3,4-Methylenedioxyphenyl)-6-(3-benzyloxy-4-methoxyphenyl)-7H-[1,2,4]triazolo[3,4-b][1,3,4]thiadiazine] returned a melting point of 86 to 88 °C. For the same compound, the IC50 in series [1] is 8.49 µM. Moreover, the IC50 in series [2] worked out at 7.32 µM. Besides, the concentration for half-maximal inhibition (IC50) in series [3] worked out at 16.3 µM.

For `COc1ccc(C2=Nn3c(nnc3-c3ccc(OC)c(OC)c3OC)SC2)cc1F` [Compound 4h, 3-(2,3,4-Trimethoxyphenyl)-6-(3-fluoro-4-methoxyphenyl)-7H-[1,2,4]triazolo[3,4-b][1,3,4]thiadiazine], the melting point was in the range of 92 to 94 °C. In addition, the IC50 in series [1] stood at 43.2 µM. The IC50 in series [2] amounted to 51.9 µM. Besides, the IC50 in series [3] came out at 16.3 µM.

As for `COc1cccc(-c2nnc3n2N=C(c2ccc(OC)c([N+](=O)[O-])c2)CS3)c1` [Compound 6h, 3-(3-Methoxyphenyl)-6-(3-nitro-4-methoxyphenyl)-7H-[1,2,4]triazolo[3,4-b][1,3,4]thiadiazine], the melting point was 207 to 208 °C. Further, the IC50 in series [1] came to 2.55 µM. In series [2], the IC50 was 1.91 µM. Also, the IC50 in series [3] turned out to be 4.2 µM.

On to `COc1ccc(C2=Nn3c(nnc3-c3cc(OC)c(OC)c(OC)c3)SC2)cc1F` [Compound 5e, 3-(3,4,5-Trimethoxyphenyl)-6-(3-fluoro-4-methoxyphenyl)-7H-[1,2,4]triazolo[3,4-b][1,3,4]thiadiazine], for which the melting point is 115 to 118 °C. The IC50 in series [1] was found to be 4.28 µM. Also, the IC50 in series [2] stood at 1.31 µM. For the same compound, in series [3], the 50% inhibitory concentration (IC50) is 3.21 µM.

As for `COc1ccc(-c2nnc3n2N=C(c2ccc(SC)cc2)CS3)c(OC)c1OC` [Compound 4g, 3-(2,3,4-Trimethoxyphenyl)-6-(4-methylthiophenyl)-7H-[1,2,4]triazolo[3,4-b][1,3,4]thiadiazine], the melting point was in the range of 86 to 88 °C. In addition, the IC50 in series [1] turned out to be 8.02 µM. The IC50 in series [2] came out at 2.7 µM. In addition, the IC50 in series [3] was found to be 12.5 µM.

Consider `COc1ccc(C2=Nn3c(nnc3-c3ccc(OC)c(OC)c3OC)SC2)cc1` [Compound 4f, 3-(2,3,4-Trimethoxyphenyl)-6-(4-methoxyphenyl)-7H-[1,2,4]triazolo[3,4-b][1,3,4]thiadiazine], for which the melting point lay in the range of 92 to 95 °C. For the same compound, the IC50 in series [1] worked out at 62.7 µM. Moreover, the 50% inhibitory concentration (IC50) in series [2] stood at 61.4 µM. The IC50 in series [3] worked out at 50.2 µM.

With `COc1ccc(-c2nnc3n2N=C(c2ccc(OC)c([N+](=O)[O-])c2)CS3)cc1` [Compound 6j, 3-(4-Methoxyphenyl)-6-(3-nitro-4-methoxyphenyl)-7H-[1,2,4]triazolo[3,4-b][1,3,4]thiadiazine], the melting point fell in the range of 97 to 99 °C. Moreover, the IC50 in series [1] came out at 8.04 µM. Moreover, the IC50 in series [2] turned out to be 2.32 µM. In series [3], the IC50 was determined as 5.68 µM.

`COc1cc(-c2nnc3n2N=C(c2ccc(SC)cc2)CS3)cc(OC)c1OC` [Compound 5d, 3-(3,4,5-Trimethoxyphenyl)-6-(4-methylthiophenyl)-7H-[1,2,4]triazolo[3,4-b][1,3,4]thiadiazine] registered a melting point of 92 to 94 °C. Also, the IC50 in series [1] worked out at 0.13 µM. For the same compound, the IC50 in series [2] stood at 0.18 µM. Further, the IC50 in series [3] worked out at 0.46 µM.

Regarding `COc1ccc(C2=Nn3c(nnc3-c3ccc(OC)c(OC)c3OC)SC2)cc1[N+](=O)[O-]` [Compound 4i, 3-(2,3,4-Trimethoxyphenyl)-6-(3-nitro-4-methoxyphenyl)-7H-[1,2,4]triazolo[3,4-b][1,3,4]thiadiazine], the melting point lay within 134 to 136 °C. Moreover, the IC50 in series [1] amounted to 13.2 µM. Besides, the IC50 in series [2] turned out to be 15.9 µM. In series [3], the IC50 stood at 16.5 µM.

`COc1ccc(C2=Nn3c(nnc3-c3cc(OC)c(OC)c(OC)c3)SC2)cc1N` [Compound 5g, 3-(3,4,5-Trimethoxyphenyl)-6-(3-amino-4-methoxyphenyl)-7H-[1,2,4]triazolo[3,4-b][1,3,4]thiadiazine] registered a melting point of 112 to 115 °C. Besides, in series [1], the IC50 was 1.25 µM. In series [2], the half-maximal inhibitory concentration (IC50) amounted to 0.18 µM. Further, the IC50 in series [3] came to 1.08 µM.
